In patent publication US20230398112A1, “SPRAY-DRIED METAL-ORGANIC FRAMEWORKS FOR TREATMENT AND/OR DIAGNOSIS OF PULMONARY DISEASE” (priority 2020, published 2023):

How the values were obtained:
Mtb = details: delivered orally; cited from earlier work
[1] = Thermogravimetric analysis (TGA), thermal stability; type: physicochemical; details: under air at 3° C./min
Protocol: The loss of ca 10 wt. % below 100° C. is attributable to crystallized water leading to a dark blue anhydrous Cu(POA)2 crystalline phase, which can also be instantaneously obtained by exposing the hydrated phase to various organic solvents (i.e. MeOH, EtOH and DMF). […] Fourier-transform infrared spectroscopy (FTIR) analysis also clearly distinguishes between the two phases, as an absorption band attributed to coordinated water at 3.400 cm^−1 can be seen for the hydrated form in FIG. 1D.

SMILES: O=C(O)c1cnccn1 [POA, pyrazinoic acid]
- efficacy as TB therapy (Mtb): ineffective
- thermal stability (TGA) [1]: 100-200 °C
